Measurements taken from the supplement of paper PMC11061612.

Key:
Assay in all cases: combination Emax (second highest fraction inhibited in the dose matrix, 72 h); higher = more inhibition; extreme values may be limits of the assay
[1] = system: BFTC-905 (Bladder Carcinoma)
How it was run: (§1)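 After 24 hours at 37°C and 5% CO2 in 1536-well plates, cells in DMEM/F12 or RPMI plus 10% FBS received two-drug dose matrices for 72 hours. Viability came from CellTiter-Glo 2.0 luminescence and was scaled as inhibition, anchored at 0 by vehicle wells and at 1 by blank wells. Combination Emax is taken as the second-highest inhibition in the matrix, and Bliss excess as the observed combination effect less EA + EB − EA·EB, with EA and EB the single-agent effects.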

[2] = system: TC-71 (Ewing's Sarcoma)
How it was run: as §1

[3] = system: EVSA-T (Breast Carcinoma)
How it was run: as §1

[4] = system: MKN28 (Gastric Carcinoma)
How it was run: as §1

[5] = system: MS751 (Cervical Carcinoma)
How it was run: as §1

[6] = system: CAMA-1 (Breast Carcinoma)
How it was run: as §1

[7] = system: MEL-JUSO (Melanoma)
How it was run: as §1

[8] = system: COLO-678 (Colorectal Carcinoma)
How it was run: as §1

[9] = system: KCL-22 (Chronic Myelogenous Leukemia)
How it was run: as §1

[10] = system: U251 (Low Grade Glioma)
How it was run: as §1

[11] = system: LN-18 (Glioblastoma)
How it was run: as §1

[12] = system: WM-115 (Melanoma)
How it was run: as §1

[13] = system: SW837 (Colorectal Carcinoma)
How it was run: as §1

[14] = system: BL-41 (Burkitt's Lymphoma)
How it was run: as §1

[15] = system: PANC-08-13 (Pancreatic Carcinoma)
How it was run: as §1

[16] = system: NCI-H1792 (Lung Adenocarcinoma)
How it was run: as §1

[17] = system: NCI-H2818 (Mesothelioma)
How it was run: as §1

[18] = system: KYSE-180 (Esophageal Squamous Cell Carcinoma)
How it was run: as §1

[19] = system: DND-41 (T-Lymphoblastic Leukemia)
How it was run: as §1

Structure (SMILES) | combination Emax [1] | combination Emax [2] | combination Emax [3] | combination Emax [4] | combination Emax [5] | combination Emax [6] | combination Emax [7] | combination Emax [8] | combination Emax [9] | combination Emax [10] | combination Emax [11] | combination Emax [12] | combination Emax [13] | combination Emax [14] | combination Emax [15] | combination Emax [16] | combination Emax [17] | combination Emax [18] | combination Emax [19]
NC1(C(=O)N[C@@H](CCO)c2ccc(Cl)cc2)CCN(c2ncnc3[nH]ccc23)CC1 [Capivasertib] + C[C@@H]1COCCN1C2=NC(=NC(=C2)C3(CC3)[S@](=N)(=O)C)C4=C5C=CNC5=NC=C4 [AZD6738] (first compound max 10 µM, 7x7, partner max 10 µM) | 0.623 | 0.959 | 0.959 | 0.296 | 0.498 | 0.684 | 0.524 | 0.237 | 0.979 | 0.444 | 0.846 | 0.628 | 0.385 | 0.981 | 0.478 | 0.767 | 0.437 | 0.554 | 0.886
Cn1cnc2c(F)c(Nc3ccc(Br)cc3Cl)c(C(=O)NOCCO)cc21 [Selumetinib] + CCN(CCO)CCCOc1ccc2c(Nc3cc(CC(=O)Nc4cccc(F)c4)[nH]n3)ncnc2c1 [AZD2811] (first compound max 10 µM, 7x7, partner max 1 µM) | 0.781 | 0.838 | 0.283 | 0.191 | 0.639 | 0.22 | 0.427 | 0.51 | 0.593 | 0.268 | 0.34 | 0.434 | 0.554 | 0.629 | 0.22 | 0.423 | 0.168 | 0.103 | 0.199
NC1(C(=O)N[C@@H](CCO)c2ccc(Cl)cc2)CCN(c2ncnc3[nH]ccc23)CC1 [Capivasertib] + COc1nnc2ccc(N3CCC(c4ccc(OCCN5CCN(C)C(=O)[C@H]5C)cc4)CC3)nn12 [AZD5153] (first compound max 10 µM, 7x7, partner max 1 µM) | 0.681 | 0.797 | 1 | 0.488 | 0.794 | 0.928 | 0.36 | 0.396 | 0.792 | 0.578 | 0.779 | 0.778 | 0.538 | 0.974 | 0.668 | 0.537 | 0.238 | 0.616 | 0.679
COc1cc2ncnc(Nc3ccc(F)c(Cl)c3)c2cc1OCCCN1CCOCC1 [Gefitinib] + CC(C)n1c(=O)n(C)c2cnc3cc(F)c(-c4ccc(OCCCN5CCCCC5)nc4)cc3c21 [AZD1390] (first compound max 10 µM, 7x7, partner max 0.3 µM) | 0.212 | 0.183 | 0.27 | 0.0764 | 0.133 | 0.111 | 0.114 | 0.306 | 0.155 | 0.0432 | 0.146 | 0.139 | 0.128 | 0.279 | 0.143 | 0.231 | 0.146 | 0.246 | 0.115
COc1nnc2ccc(N3CCC(c4ccc(OCCN5CCN(C)C(=O)[C@H]5C)cc4)CC3)nn12 [AZD5153] + Cc1c2c(nn1C)CSCc1cc(n(C)n1)CSc1cc(c3ccccc3c1)OCCCc1c(C(=O)O)n(C)c3c-2c(Cl)ccc13 [AZD5991] (first compound max 1 µM, 7x7, partner max 1 µM) | 0.746 | 0.996 | 1 | 0.462 | 0.919 | 0.951 | 0.306 | 0.51 | 0.902 | 0.65 | 0.616 | 0.707 | 0.571 | 1 | 0.825 | 0.877 | 0.441 | 0.513 | 0.845
CC(=O)c1c(C)c2cnc(Nc3ccc(N4CCNCC4)cn3)nc2n(C2CCCC2)c1=O [Palbociclib] + Cc1c2c(nn1C)CSCc1cc(n(C)n1)CSc1cc(c3ccccc3c1)OCCCc1c(C(=O)O)n(C)c3c-2c(Cl)ccc13 [AZD5991] (first compound max 10 µM, 7x7, partner max 1 µM) | 0.474 | 0.586 | 0.967 | 0.133 | 0.833 | 0.408 | 0.305 | 0.351 | 0.673 | 0.297 | 0.477 | 0.293 | 0.161 | 0.998 | 0.221 | 0.571 | 0.367 | 0.638 | 0.51
Cn1cnc2c(F)c(Nc3ccc(Br)cc3Cl)c(C(=O)NOCCO)cc21 [Selumetinib] + CC(C)n1c(=O)n(C)c2cnc3cc(F)c(-c4ccc(OCCCN5CCCCC5)nc4)cc3c21 [AZD1390] (first compound max 10 µM, 7x7, partner max 0.3 µM) | 0.606 | 0.237 | 0.174 | 0.137 | 0.144 | 0.0892 | 0.349 | 0.502 | 0.478 | 0.141 | 0.157 | 0.411 | 0.567 | 0.209 | 0.111 | 0.378 | 0.138 | 0.0295 | 0.157
Cn1cnc2c(F)c(Nc3ccc(Br)cc3Cl)c(C(=O)NOCCO)cc21 [Selumetinib] + C[C@@H]1COCCN1C2=NC(=NC(=C2)C3(CC3)[S@](=N)(=O)C)C4=C5C=CNC5=NC=C4 [AZD6738] (first compound max 10 µM, 7x7, partner max 10 µM) | 0.784 | 0.945 | 0.222 | 0.202 | 0.476 | 0.319 | 0.509 | 0.466 | 0.984 | 0.443 | 0.71 | 0.617 | 0.544 | 0.989 | 0.239 | 0.76 | 0.252 | 0.393 | 0.897
Cn1cnc2c(F)c(Nc3ccc(Br)cc3Cl)c(C(=O)NOCCO)cc21 [Selumetinib] + C=CCn1c(=O)c2cnc(Nc3ccc(N4CCN(C)CC4)cc3)nc2n1-c1cccc(C(C)(C)O)n1 [AZD1775] (first compound max 10 µM, partner max 1 µM) | 0.665 | 0.355 | 0.156 | 0.276 | 0.575 | 0.148 | 0.604 | 0.52 | 0.943 | 0.326 | 0.461 | 0.402 | 0.549 | 1 | 0.305 | 0.632 | 0.303 | 0.544 | 0.898
NC1(C(=O)N[C@@H](CCO)c2ccc(Cl)cc2)CCN(c2ncnc3[nH]ccc23)CC1 [Capivasertib] + CCN(CCO)CCCOc1ccc2c(Nc3cc(CC(=O)Nc4cccc(F)c4)[nH]n3)ncnc2c1 [AZD2811] (first compound max 10 µM, 7x7, partner max 1 µM) | 0.428 | 0.854 | 0.979 | 0.206 | 0.632 | 0.768 | 0.274 | 0.222 | 0.472 | 0.444 | 0.597 | 0.583 | 0.261 | 0.706 | 0.329 | 0.34 | 0.294 | 0.51 | 0.224
COc1nnc2ccc(N3CCC(c4ccc(OCCN5CCN(C)C(=O)[C@H]5C)cc4)CC3)nn12 [AZD5153] + C=CCn1c(=O)c2cnc(Nc3ccc(N4CCN(C)CC4)cc3)nc2n1-c1cccc(C(C)(C)O)n1 [AZD1775] (first compound max 1 µM, partner max 1 µM) | 0.63 | 0.935 | 0.942 | 0.525 | 0.935 | 0.453 | 0.491 | 0.531 | 0.927 | 0.799 | 0.649 | 0.338 | 0.715 | 1 | 0.679 | 0.83 | 0.327 | 0.742 | 0.941
CC(=O)c1c(C)c2cnc(Nc3ccc(N4CCNCC4)cn3)nc2n(C2CCCC2)c1=O [Palbociclib] + CN(CC[C@H](CSC1=CC=CC=C1)NC2=C(C=C(C=C2)S(=O)(=O)NC(=O)C3=CC=C(C=C3)N4CCC(CC4)[C@H](C5=CC=CC=C5C6=CC=C(C=C6)Cl)O)S(=O)(=O)C(F)(F)F)CCO [AZD4320] (first compound max 10 µM, 7x7, partner max 1 µM) | – | 0.828 | 0.444 | – | 0.159 | – | 0.356 | 0.354 | 0.82 | 0.294 | 0.517 | – | – | – | 0.384 | – | – | 0.462 | –
COc1nnc2ccc(N3CCC(c4ccc(OCCN5CCN(C)C(=O)[C@H]5C)cc4)CC3)nn12 [AZD5153] + CN(CC[C@H](CSC1=CC=CC=C1)NC2=C(C=C(C=C2)S(=O)(=O)NC(=O)C3=CC=C(C=C3)N4CCC(CC4)[C@H](C5=CC=CC=C5C6=CC=C(C=C6)Cl)O)S(=O)(=O)C(F)(F)F)CCO [AZD4320] (first compound max 1 µM, 7x7, partner max 1 µM) | – | 0.814 | 0.938 | – | 0.726 | – | 0.3 | 0.459 | 0.963 | 0.505 | 0.605 | – | – | – | 0.876 | – | – | 0.326 | –
C[C@@H](c1ccc2nccn2c1)n1nnc2ncc(-c3cnn(C)c3)nc21 [Savolitinib] + CN(CC[C@H](CSC1=CC=CC=C1)NC2=C(C=C(C=C2)S(=O)(=O)NC(=O)C3=CC=C(C=C3)N4CCC(CC4)[C@H](C5=CC=CC=C5C6=CC=C(C=C6)Cl)O)S(=O)(=O)C(F)(F)F)CCO [AZD4320] (first compound max 1 µM, 7x7, partner max 1 µM) | – | 0.585 | 0.248 | – | 0.184 | – | 0.257 | 0.226 | 0.268 | 0.176 | 0.163 | – | – | – | 0.394 | – | – | 0.13 | –
